Each compound was assayed against T1, Thymidine phosphorylase (Homo sapiens, UniProt P19971) (assay: Binding affinity towards recombinant thymidine phosphorylase TP).
T1 sequence (P19971 whole entry): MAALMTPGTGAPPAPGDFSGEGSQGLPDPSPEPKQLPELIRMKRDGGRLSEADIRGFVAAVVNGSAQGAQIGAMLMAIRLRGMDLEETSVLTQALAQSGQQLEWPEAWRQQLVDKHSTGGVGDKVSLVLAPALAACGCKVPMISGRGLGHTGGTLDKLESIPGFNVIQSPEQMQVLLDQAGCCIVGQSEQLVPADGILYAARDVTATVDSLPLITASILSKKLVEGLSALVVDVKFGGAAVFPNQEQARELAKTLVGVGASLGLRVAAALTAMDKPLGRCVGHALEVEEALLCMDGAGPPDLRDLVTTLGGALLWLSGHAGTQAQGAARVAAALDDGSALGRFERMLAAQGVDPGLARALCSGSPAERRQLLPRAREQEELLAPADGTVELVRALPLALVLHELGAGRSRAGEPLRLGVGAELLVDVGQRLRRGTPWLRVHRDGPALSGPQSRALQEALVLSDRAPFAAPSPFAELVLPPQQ

`Nc1cc2[nH]c(=O)[nH]c(=O)c2s1` and `N=C(N)Nc1cc2[nH]c(=O)[nH]c(=O)c2s1` cannot be ordered by Ki: > 300 µM for the first, > 2400 µM for the second.

For `Nc1csc2c(=O)[nH]c(=O)[nH]c12`, the Ki was > 600 µM.

From ChEMBL document CHEMBL1136409, “Design of novel N-(2,4-dioxo-1,2,3,4-tetrahydro-thieno[3,2-d]pyrimidin-7-yl)-guanidines as thymidine phosphorylase inhibitors, and flexible docking to a homology model” (Bioorg Med Chem Lett, 2003)
